According to patent US9828393B2, “Silylalkyloxyaryl compounds and methods for treating cancer” (THE REGENTS OF THE UNIVERSITY OF COLORADO, a body corporate, priority 2013, dated 2017):
Like-named read-outs stand apart in the source and are kept apart here.

How the values were obtained:
HOP-92 = experiment: NCI-60 cell line screen (SRB), HOP-92; format: cell-based, human
Procedure: (§1) Drug sensitivity data are provided as GI50s (concentrations required to inhibit growth by 50%). The first row of the text file identifies cell lines, separated by tabs. Subsequent rows contain compound number, compound name, and GI50 for each cell line, each separated by a tab. […] For a typical screening experiment, cells are inoculated into 96 well microtiter plates in 100 μL at plating densities ranging from 5,000 to 40,000 cells/well depending on the doubling time of individual cell lines. After cell inoculation, the microtiter plates are incubated at 37° C., 5% CO2, 95% air and 100% relative humidity for 24 h prior to addition of experimental drugs. After 24 h, two plates of each cell line are fixed in situ with TCA, to represent a measurement of the cell population for each cell line at the time of drug addition (Tz). Experimental drugs are solubilized in dimethyl sulfoxide at 400-fold the desired final maximum test concentration and stored frozen prior to use. At the time of drug addition, an aliquot of frozen concentrate is thawed and diluted to twice the desired final maximum test concentration with complete medium containing 50 μg/ml gentamicin. Additional four, 10-fold or one-half log serial dilutions are made to provide a total of five drug concentrations plus control. Aliquots of 100 μl of these different drug dilutions are added to the appropriate microtiter wells already containing 100 μl of medium, resulting in the required final drug concentrations. Following drug addition, the plates are incubated for an additional 48 h at 37° C., 5% CO2, 95% air, and 100% relative humidity. For adherent cells, the assay is terminated by the addition of cold TCA. Cells are fixed in situ by the gentle addition of 50 μl of cold 50% (w/v) TCA (final concentration, 10% TCA) and incubated for 60 minutes at 4° C. The supernatant is discarded, and the plates are washed five times with tap water and air dried. Sulforhodamine B (SRB) solution (100 μl) at 0.4% (w/v) in 1% acetic acid is added to each well, and plates are incubated for 10 minutes at room temperature. After staining, unbound dye is removed by washing five times with 1% acetic acid and the plates are air dried. Bound stain is subsequently solubilized with 10 mM trizma base, and the absorbance is read on an automated plate reader at a wavelength of 515 nm. For suspension cells, the methodology is the same except that the assay is terminated by fixing settled cells at the bottom of the wells by gently adding 50 μl of 80% TCA (final concentration, 16% TCA). Using the seven absorbance measurements [time zero, (Tz), control growth, (C), and test growth in the presence of drug at the five concentration levels (Ti)], the percentage growth is calculated at each of the drug concentrations levels. […]

MALME-3M = experiment: NCI-60 cell line screen (SRB), MALME-3M; format: cell-based, human
Procedure: as §1

RXF 393 = experiment: NCI-60 cell line screen (SRB), RXF 393; format: cell-based, human
Procedure: as §1

Leukemia cell lines = experiment: NCI-60 cell line screen, Leukemia panel average; format: cell-based, human; conditions: read-out: GI50 Average
Procedure: as §1

OVCAR-4 = experiment: NCI-60 cell line screen (SRB), OVCAR-4; format: cell-based, human
Procedure: as §1

HCT-15 = experiment: NCI-60 cell line screen (SRB), HCT-15; format: cell-based, human
Procedure: as §1

[1] = tested on: Ovarian Cancer cell lines; experiment: NCI-60 cell line screen, Ovarian Cancer panel average; format: cell-based, human; conditions: read-out: GI50 Average
Procedure: as §1

HCT-116 = experiment: NCI-60 cell line screen (SRB), HCT-116; format: cell-based, human
Procedure: as §1

K-562 = experiment: NCI-60 cell line screen (SRB), K-562; format: cell-based, human
Procedure: as §1

SF-268 = experiment: NCI-60 cell line screen (SRB), SF-268; format: cell-based, human
Procedure: as §1

OVCAR-8 = experiment: NCI-60 cell line screen (SRB), OVCAR-8; format: cell-based, human
Procedure: as §1

HOP-62 = experiment: NCI-60 cell line screen (SRB), HOP-62; format: cell-based, human
Procedure: as §1

OVCAR-3 = experiment: NCI-60 cell line screen (SRB), OVCAR-3; format: cell-based, human
Procedure: as §1

SK-MEL-2 = experiment: NCI-60 cell line screen (SRB), SK-MEL-2; format: cell-based, human
Procedure: as §1

[2] = tested on: Prostate Cancer cell lines; experiment: NCI-60 cell line screen, Prostate Cancer panel average; format: cell-based, human; conditions: read-out: GI50 Average
Procedure: as §1

UACC-257 = experiment: NCI-60 cell line screen (SRB), UACC-257; format: cell-based, human
Procedure: as §1

Renal Cancer cell lines = experiment: NCI-60 cell line screen, Renal Cancer panel average; format: cell-based, human; conditions: read-out: GI50 Average
Procedure: as §1

SN12C = experiment: NCI-60 cell line screen (SRB), SN12C; format: cell-based, human
Procedure: as §1

[3] = molecular target: EZH2 (Enhancer of Zeste Homologue 2), a Histone H3 Lys 27 (H3K27) methyltransferase (Homo sapiens, UniProt Q15910); experiment: OIDD in vitro target-based assay, EZH2 inhibitory activity; format: biochemical; conditions: OIDD screen; FIG. 1
Procedure: An organosilicon compound of the invention (GH1503) was tested using the in vitro target-based assays through an open innovation drug discovery program (OIDD). The organosilicon compound tested was given OIDD number 2351349879. […] This enzyme plays a critical role in regulating gene expression and is highly expressed in a wide range of cancer types, including bladder, breast, colon, lung, melanoma, pancreatic cancer, melanoma, sarcoma and lymphomas.

EZH2 (Enhancer of Zeste Homologue 2), a Histone H3 Lys 27 (H3K27) methyltransferase, sequence (Q15910 whole entry): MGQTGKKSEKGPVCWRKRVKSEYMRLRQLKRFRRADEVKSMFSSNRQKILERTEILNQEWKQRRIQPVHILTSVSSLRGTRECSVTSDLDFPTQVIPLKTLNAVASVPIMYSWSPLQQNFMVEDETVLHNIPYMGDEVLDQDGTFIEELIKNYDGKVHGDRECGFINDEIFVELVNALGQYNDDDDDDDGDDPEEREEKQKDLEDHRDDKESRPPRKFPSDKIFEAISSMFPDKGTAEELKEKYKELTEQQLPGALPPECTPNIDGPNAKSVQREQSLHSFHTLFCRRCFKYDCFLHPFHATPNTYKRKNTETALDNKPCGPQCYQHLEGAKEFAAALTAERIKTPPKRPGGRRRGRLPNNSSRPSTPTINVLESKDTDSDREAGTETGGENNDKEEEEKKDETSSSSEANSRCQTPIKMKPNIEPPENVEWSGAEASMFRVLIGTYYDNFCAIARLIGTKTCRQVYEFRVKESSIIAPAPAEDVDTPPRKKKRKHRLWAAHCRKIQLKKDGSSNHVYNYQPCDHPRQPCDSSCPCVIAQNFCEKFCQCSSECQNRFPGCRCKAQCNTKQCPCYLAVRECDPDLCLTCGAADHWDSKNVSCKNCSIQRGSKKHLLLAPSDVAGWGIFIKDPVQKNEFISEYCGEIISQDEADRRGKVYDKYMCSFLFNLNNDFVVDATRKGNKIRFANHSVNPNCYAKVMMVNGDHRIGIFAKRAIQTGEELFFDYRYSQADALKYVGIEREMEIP
EZH2 (Enhancer of Zeste Homologue 2), a Histone H3 Lys 27 (H3K27) methyltransferase, sequence (O75530 whole entry partner): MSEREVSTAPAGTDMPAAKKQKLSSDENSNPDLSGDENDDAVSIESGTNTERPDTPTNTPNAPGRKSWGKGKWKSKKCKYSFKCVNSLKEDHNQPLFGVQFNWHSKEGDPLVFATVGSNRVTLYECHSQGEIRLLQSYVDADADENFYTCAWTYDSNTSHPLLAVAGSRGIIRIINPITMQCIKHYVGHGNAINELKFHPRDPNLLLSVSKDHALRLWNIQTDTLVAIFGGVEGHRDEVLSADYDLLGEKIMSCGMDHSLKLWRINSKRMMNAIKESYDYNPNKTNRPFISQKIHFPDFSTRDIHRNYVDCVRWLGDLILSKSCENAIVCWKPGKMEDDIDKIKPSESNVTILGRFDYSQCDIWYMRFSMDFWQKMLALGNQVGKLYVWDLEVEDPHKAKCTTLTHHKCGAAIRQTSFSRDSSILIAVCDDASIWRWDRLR
EZH2 (Enhancer of Zeste Homologue 2), a Histone H3 Lys 27 (H3K27) methyltransferase, sequence (Q15022 whole entry partner): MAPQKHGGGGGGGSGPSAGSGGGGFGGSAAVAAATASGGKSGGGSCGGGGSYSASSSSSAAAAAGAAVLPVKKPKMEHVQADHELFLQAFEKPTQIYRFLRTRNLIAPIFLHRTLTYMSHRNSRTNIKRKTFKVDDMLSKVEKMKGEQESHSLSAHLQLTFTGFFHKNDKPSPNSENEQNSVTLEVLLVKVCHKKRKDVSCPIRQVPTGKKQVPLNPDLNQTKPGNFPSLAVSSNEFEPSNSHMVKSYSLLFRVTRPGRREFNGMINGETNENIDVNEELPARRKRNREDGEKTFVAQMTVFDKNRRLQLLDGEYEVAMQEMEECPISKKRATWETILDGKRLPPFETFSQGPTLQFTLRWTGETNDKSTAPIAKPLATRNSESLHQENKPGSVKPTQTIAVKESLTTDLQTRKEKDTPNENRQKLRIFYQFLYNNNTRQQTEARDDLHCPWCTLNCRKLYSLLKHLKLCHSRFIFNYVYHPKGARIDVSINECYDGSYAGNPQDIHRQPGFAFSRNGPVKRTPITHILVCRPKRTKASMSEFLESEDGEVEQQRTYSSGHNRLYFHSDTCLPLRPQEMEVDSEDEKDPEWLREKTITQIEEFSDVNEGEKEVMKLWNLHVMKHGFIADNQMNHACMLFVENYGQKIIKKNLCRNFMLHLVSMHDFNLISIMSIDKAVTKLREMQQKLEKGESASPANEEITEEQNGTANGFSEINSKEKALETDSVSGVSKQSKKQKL

SMILES: CC1(C)CC(NC(=O)[C@H](Cc2ccc(OCc3c(Cl)cccc3Cl)cc2)NC(=O)c2ccc(OCCC[Si](C)(C)C)cc2)CC(C)(C)N1 [GH1501, N^α-{4-[3-(trimethylsilyl)propoxy]-benzoyl}-N-(2,2,6,6-tetramethylpiperidin-4-yl)-[O-(2,6-dichlorobenzyl)-L-tyrosinamide]]
- GI50 (HOP-92; Homo sapiens, HOP-92, 48 h): 1.17 µM
- GI50 (MALME-3M; Homo sapiens, Malme-3M, 48 h): 1.46 µM
- GI50 (RXF 393; Homo sapiens, RXF 393, 48 h): 1.51 µM
- GI50 (Leukemia cell lines; Homo sapiens): 0.802 µM
- GI50 (OVCAR-4; Homo sapiens, OVCAR-4, 48 h): 1.62 µM
- GI50 (HCT-15; Homo sapiens, HCT-15, 48 h): 0.357 µM
- GI50 ([1]; Homo sapiens): 1.37 µM
- GI50 (HCT-116; Homo sapiens, HCT-116, 48 h): 0.206 µM
- GI50 (K-562; Homo sapiens, K562, 48 h): 0.322 µM
- GI50 (SF-268; Homo sapiens, SF-268, 48 h): 0.903 µM
- GI50 (OVCAR-8; Homo sapiens, OVCAR-8, 48 h): 0.268 µM
- GI50 (HOP-62; Homo sapiens, HOP-62, 48 h): 1.86 µM
- GI50 (OVCAR-3; Homo sapiens, OVCAR-3, 48 h): 1.25 µM
- GI50 (SK-MEL-2; Homo sapiens, SK-MEL-2, 48 h): 1.77 µM
- GI50 ([2]; Homo sapiens): 0.834 µM
- GI50 (UACC-257; Homo sapiens, UACC-257, 48 h): 1.88 µM
- GI50 (Renal Cancer cell lines; Homo sapiens): 1.28 µM
- GI50 (SN12C; Homo sapiens, 48 h): 0.564 µM

SMILES: CCCC[Si](C)(C)COc1ccc(C(=O)N[C@@H](Cc2ccc(OCc3c(Cl)cccc3Cl)cc2)C(=O)NC2CC(C)(C)NC(C)(C)C2)cc1 [GH1503, N^α-{4-[(butyldimethylsilyl)methoxy]-benzoyl}-N-(2,2,6,6-tetramethylpiperidin-4-yl)-[O-(2,6-dichlorobenzyl)-L-tyrosinamide]]
- GI50 (HOP-92; Homo sapiens, Non-Small Cell Lung Cancer, HOP-92, 48 h drug incubation, read-out: GI50): 1.11 µM
- GI50 (MALME-3M; Homo sapiens, Melanoma, MALME-3M, 48 h drug incubation, read-out: GI50): 1.2 µM
- GI50 (RXF 393; Homo sapiens, Renal Cancer, RXF 393, 48 h drug incubation, read-out: GI50): 0.392 µM
- GI50 (Leukemia cell lines; Homo sapiens, average over Leukemia panel): 0.572 µM
- GI50 (OVCAR-4; Homo sapiens, Ovarian Cancer, OVCAR-4, 48 h drug incubation, read-out: GI50): 0.711 µM
- GI50 (HCT-15; Homo sapiens, Colon Cancer, HCT-15, 48 h drug incubation, read-out: GI50): 0.323 µM
- GI50 ([1]; Homo sapiens, average over Ovarian Cancer panel): 1.05 µM
- GI50 (HCT-116; Homo sapiens, Colon Cancer, HCT-116, 48 h drug incubation, read-out: GI50): 0.319 µM
- GI50 (K-562; Homo sapiens, K562, Leukemia, K-562, 48 h drug incubation, read-out: GI50): 0.333 µM
- GI50 (SF-268; Homo sapiens, CNS Cancer, SF-268, 48 h drug incubation, read-out: GI50): 0.611 µM
- GI50 (OVCAR-8; Homo sapiens, Ovarian Cancer, OVCAR-8, 48 h drug incubation, read-out: GI50): 0.263 µM
- GI50 (HOP-62; Homo sapiens, Non-Small Cell Lung Cancer, HOP-62, 48 h drug incubation, read-out: GI50): 1.51 µM
- GI50 (OVCAR-3; Homo sapiens, Ovarian Cancer, OVCAR-3, 48 h drug incubation, read-out: GI50): 0.761 µM
- IC50 [3]: in the micromolar range
- GI50 (SK-MEL-2; Homo sapiens, Melanoma, SK-MEL-2, 48 h drug incubation, read-out: GI50): 1.56 µM
- GI50 ([2]; Homo sapiens, average over Prostate Cancer panel): 0.382 µM
- GI50 (UACC-257; Homo sapiens, Melanoma, UACC-257, 48 h drug incubation, read-out: GI50): 1.87 µM
- GI50 (Renal Cancer cell lines; Homo sapiens, average over Renal Cancer panel): 1.05 µM
- GI50 (SN12C; Homo sapiens, Renal Cancer, 48 h drug incubation, read-out: GI50): 0.613 µM

SMILES: CCCC[Si](C)(C)COc1ccc(C(=O)N[C@@H](Cc2ccc(-c3ccccc3)cc2)C(=O)NC2CC(C)(C)NC(C)(C)C2)cc1 [GH1504, N^α-{4-[(butyldimethylsilyl)methoxy]-benzoyl}-N-(2,2,6,6-tetramethylpiperidin-4-yl)-(4-phenyl-L-phenylalaninamide)]
- GI50 (HOP-92; Homo sapiens, HOP-92, 48 h): 1.37 µM
- GI50 (MALME-3M; Homo sapiens, Malme-3M, 48 h): 1.75 µM
- GI50 (RXF 393; Homo sapiens, RXF 393, 48 h): 0.179 µM
- GI50 (Leukemia cell lines; Homo sapiens): 1.17 µM
- GI50 (OVCAR-4; Homo sapiens, OVCAR-4, 48 h): 0.521 µM
- GI50 (HCT-15; Homo sapiens, HCT-15, 48 h): 0.309 µM
- GI50 ([1]; Homo sapiens): 1.15 µM
- GI50 (HCT-116; Homo sapiens, HCT-116, 48 h): 0.218 µM
- GI50 (K-562; Homo sapiens, K562, 48 h): 0.386 µM
- GI50 (SF-268; Homo sapiens, SF-268, 48 h): 0.679 µM
- GI50 (OVCAR-8; Homo sapiens, OVCAR-8, 48 h): 0.216 µM
- GI50 (HOP-62; Homo sapiens, HOP-62, 48 h): 1.36 µM
- GI50 (OVCAR-3; Homo sapiens, OVCAR-3, 48 h): 0.202 µM
- GI50 (SK-MEL-2; Homo sapiens, SK-MEL-2, 48 h): 0.944 µM
- GI50 ([2]; Homo sapiens): 0.834 µM
- GI50 (UACC-257; Homo sapiens, UACC-257, 48 h): 1.78 µM
- GI50 (Renal Cancer cell lines; Homo sapiens): 1.01 µM
- GI50 (SN12C; Homo sapiens, 48 h): 0.526 µM

SMILES: CCOP(=O)(OCC)C(NC(=O)[C@H](Cc1ccc(-c2ccccc2)cc1)NC(=O)c1ccc(OCCC[Si](C)(C)C)cc1)P(=O)(OCC)OCC [GH1505, N^α-{4-[3-(trimethylsilyl)propoxy]-benzoyl}-N-[bis(dietoxyphosphoryl)methyl]-(4-phenyl-L-phenylalaninamide)]
- GI50 (HOP-92; Non-Small Cell Lung Cancer, HOP-92, 48 h drug incubation, read-out: GI50): 2.09 µM
- GI50 (MALME-3M; Melanoma, MALME-3M, 48 h drug incubation, read-out: GI50): 1.93 µM
- GI50 (RXF 393; Renal Cancer, RXF 393, 48 h drug incubation, read-out: GI50): 1.87 µM
- GI50 (Leukemia cell lines; average over Leukemia panel): 2.8 µM
- GI50 (OVCAR-4; Ovarian Cancer, OVCAR-4, 48 h drug incubation, read-out: GI50): 2.54 µM
- GI50 (HCT-15; Colon Cancer, HCT-15, 48 h drug incubation, read-out: GI50): 2.25 µM
- GI50 ([1]; average over Ovarian Cancer panel): 2.6 µM
- GI50 (HCT-116; Colon Cancer, HCT-116, 48 h drug incubation, read-out: GI50): 1.93 µM
- GI50 (K-562; Leukemia, K-562, 48 h drug incubation, read-out: GI50): 3.46 µM
- GI50 (SF-268; CNS Cancer, SF-268, 48 h drug incubation, read-out: GI50): 2.07 µM
- GI50 (OVCAR-8; Ovarian Cancer, OVCAR-8, 48 h drug incubation, read-out: GI50): 2.96 µM
- GI50 (HOP-62; Non-Small Cell Lung Cancer, HOP-62, 48 h drug incubation, read-out: GI50): 2 µM
- GI50 (OVCAR-3; Ovarian Cancer, OVCAR-3, 48 h drug incubation, read-out: GI50): 1.87 µM
- GI50 (SK-MEL-2; Melanoma, SK-MEL-2, 48 h drug incubation, read-out: GI50): 2.11 µM
- GI50 ([2]; average over Prostate Cancer panel): 2.02 µM
- GI50 (UACC-257; Melanoma, UACC-257, 48 h drug incubation, read-out: GI50): 2.42 µM
- GI50 (Renal Cancer cell lines; average over Renal Cancer panel): 2.55 µM
- GI50 (SN12C; Renal Cancer, 48 h drug incubation, read-out: GI50): 1.71 µM
